From patent publication US20230374015A1, “INHIBITORS OF FIBROBLAST GROWTH FACTOR RECEPTOR KINASES” (Kinnate Biopharma Inc., priority 2020, published 2023)

What follows are compounds tested against FGFR2 (Homo sapiens, UniProt P21802) (assay: FGFR2 Kinase Protocol - Condition 2 (Reaction Biology HotSpot radiometric kinase assay, no preincubation)). Conditions: poly[Glu:Tyr] (4:1) 0.2 mg/ml, ATP 100 microM, 2 hr room temperature.
Format: biochemical
Description: Example 2: FGFR2 Kinase Protocol—Condition 2
The Reaction Biology HotSpot assay platform (http://www.reactionbiology.com) was used to measure kinase/inhibitor interactions as described previously (Anastassiadis et al., 2011). In brief, for each reaction, kinase and substrate were mixed in a buffer containing 20 mM HEPES (pH 7.5), 10 mM MgCl2, 1 mM EGTA, 0.02% Brij35, 0.02 mg/mL BSA, 0.1 mM Na3VO4, 2 mM DTT, and 1% DMSO. All compounds were in powder form and freshly solubilized in DMSO for assays. Compounds were then added to each reaction mixture via acoustic dispense using an ECHO 550 nanoliter dispenser. For Human FGFR2 wildtype testing, a peptide substrate, poly[Glu:Tyr] (4:1) was used to promote the reaction at a concentration of 0.2 mg/ml. For Human FGFR2 (V564F) testing, a peptide substrate, poly[Glu:Tyr] (4:1) was used to promote the reaction at a concentration of 0.2 mg/ml. ATP concentration for all assays was maintained at 100 micromolar. Compounds were tested in 10-dose IC50 mode with a 3-fold serial dilution. Compounds were added to plates and ATP was added directly to the wells. ATP (Sigma-Aldrich, St. Louis, MO 63178) and [g33P] ATP (specific activity 10 microCi/microliter) purchased at PerkinElmer (Boston, MA, 02118 Cat #BLU 003H250UC) were added at a final total concentration of 100 microM to each well with no preincubation. Reactions were carried out at room temperature for 2 hr and spotted onto P81 ion exchange cellulose chromatography paper (Reaction Biology). Filter paper was washed in 0.75% phosphoric acid to remove unincorporated ATP. The percent remaining kinase activity relative to a vehicle-containing (DMSO) kinase reaction was calculated for each kinase/inhibitor pair. IC50 values were calculated using Dotmatics Knowledge Solutions Studies curve fitting (Dotmatics, Bishops Stortford, UK, CM23).

FGFR2, sequence (P21802 22-821): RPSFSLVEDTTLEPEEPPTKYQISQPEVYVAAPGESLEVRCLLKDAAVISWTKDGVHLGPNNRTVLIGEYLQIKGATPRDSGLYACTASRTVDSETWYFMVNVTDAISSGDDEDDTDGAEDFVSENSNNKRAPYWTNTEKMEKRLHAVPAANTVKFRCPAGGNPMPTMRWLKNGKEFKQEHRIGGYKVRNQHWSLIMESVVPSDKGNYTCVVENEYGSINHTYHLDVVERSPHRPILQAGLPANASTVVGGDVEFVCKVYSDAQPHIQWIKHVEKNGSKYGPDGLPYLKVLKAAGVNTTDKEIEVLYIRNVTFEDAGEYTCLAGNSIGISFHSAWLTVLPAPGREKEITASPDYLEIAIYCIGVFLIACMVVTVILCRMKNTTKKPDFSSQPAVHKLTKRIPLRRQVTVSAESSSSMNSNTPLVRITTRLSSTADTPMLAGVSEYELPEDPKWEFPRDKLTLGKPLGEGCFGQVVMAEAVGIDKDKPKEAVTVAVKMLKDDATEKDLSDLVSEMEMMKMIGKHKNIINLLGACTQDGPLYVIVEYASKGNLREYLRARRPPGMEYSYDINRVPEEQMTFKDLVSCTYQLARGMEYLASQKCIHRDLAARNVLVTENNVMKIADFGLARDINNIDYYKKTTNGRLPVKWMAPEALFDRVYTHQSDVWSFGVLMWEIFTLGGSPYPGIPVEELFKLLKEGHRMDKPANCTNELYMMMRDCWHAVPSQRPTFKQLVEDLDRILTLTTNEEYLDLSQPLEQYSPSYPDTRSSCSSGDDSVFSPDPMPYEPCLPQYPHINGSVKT

IC50, ≤ 100 nM:
C=CC(=O)N1C[C@@H](n2nc(C#Cc3c(F)cc4c(ncn4C4CC4)c3F)c3c(N)ncnc32)C[C@@H]1COC(F)(F)F [Example 76, 1-[(2R,4S)-4-[4-Amino-3-[2-(1-cyclopropyl-4,6-difluoro-1,3-benzodiazol-5-yl)ethynyl]pyrazolo[3,4-d]pyrimidin-1-yl]-2-[(trifluoromethoxy)methyl]pyrrolidin-1-yl]prop-2-en-1-one]
C=CC(=O)N1C[C@@H](n2nc(C#Cc3cc4ncn(CC)c4cc3F)c3c(N)ncnc32)C[C@@H]1COC [Example 77, 1-[(2R,4S)-4-[4-Amino-3-[2-(1-ethyl-6-fluoro-1,3-benzodiazol-5-yl)ethynyl]pyrazolo[3,4-d]pyrimidin-1-yl]-2-(methoxymethyl)pyrrolidin-1-yl]prop-2-en-1-one]
C=CC(=O)N1C[C@@H](n2nc(C#Cc3cc4ncn(C5CC5)c4cc3F)c3c(N)ncnc32)C[C@@H]1COC(F)(F)F [Example 78, 1-((2R,4S)-4-(4-Amino-3-((1-cyclopropyl-6-fluoro-1H-benzo[d]imidazol-5-yl)ethynyl)-1H-pyrazolo[3,4-d]pyrimidin-1-yl)-2-((trifluoromethoxy)methyl)pyrrolidin-1-yl)prop-2-en-1-one]
C=CC(=O)N1C[C@@H](n2nc(C#Cc3cc4ncn(CC)c4cc3F)c3c(N)nccc32)C[C@@H]1COC [Example 79, 1-[(2R,4S)-4-[4-Amino-3-[2-(1-ethyl-6-fluoro-1,3-benzodiazol-5-yl)ethynyl]pyrazolo[4,3-c]pyridin-1-yl]-2-(methoxymethyl)pyrrolidin-1-yl]prop-2-en-1-one]
C=CC(=O)N1C[C@@H](n2cc(C#Cc3cc4ncn(CC)c4cc3F)c3c(N)ncnc32)C[C@@H]1COC [Example 80, 1-[(2R,4S)-4-[4-Amino-5-[2-(1-ethyl-6-fluoro-1,3-benzodiazol-5-yl)ethynyl]pyrrolo[2,3-d]pyrimidin-7-yl]-2-(methoxymethyl)pyrrolidin-1-yl]prop-2-en-1-one]
C=CC(=O)N1C[C@@H](n2nc(C#Cc3cc4ncn(CC)c4cc3F)c3c(N)nccc32)C[C@@H]1COC(F)(F)F [Example 81, 1-[(2R,4S)-4-[4-Amino-3-[2-(1-ethyl-6-fluoro-1,3-benzodiazol-5-yl)ethynyl]pyrazolo[4,3-c]pyridin-1-yl]-2-[(trifluoromethoxy)methyl]pyrrolidin-1-yl]prop-2-en-1-one]
C=CC(=O)N1C[C@@H](n2nc(C#Cc3cc4ncn(C(F)F)c4cc3F)c3c(N)ncnc32)C[C@@H]1COC [Example 82, 1-[(2R,4S)-4-(4-Amino-3-[2-[1-(difluoromethyl)-6-fluoro-1,3-benzodiazol-5-yl]ethynyl]pyrazolo[3,4-d]pyrimidin-1-yl)-2-(methoxymethyl)pyrrolidin-1-yl]prop-2-en-1-one]
C=CC(=O)N1C[C@@H](n2nc(C#Cc3cc4ncn(C(F)F)c4cc3F)c3c(N)nccc32)C[C@@H]1COC [Example 83, 1-[(2R,4S)-4-(4-Amino-3-[2-[1-(difluoromethyl)-6-fluoro-1,3-benzodiazol-5-yl]ethynyl]pyrazolo[4,3-c]pyridin-1-yl)-2-(methoxymethyl)pyrrolidin-1-yl]prop-2-en-1-one]
C=CC(=O)N1C[C@@H](n2cc(C#Cc3cc4ncn(C(F)F)c4cc3F)c3c(N)ncnc32)C[C@@H]1COC [Example 84, 1-[(2R,4S)-4-(4-Amino-5-[2-[1-(difluoromethyl)-6-fluoro-1,3-benzodiazol-5-yl]ethynyl]pyrrolo[2,3-d]pyrimidin-7-yl)-2-(methoxymethyl)pyrrolidin-1-yl]prop-2-en-1-one]
C=CC(=O)N1C[C@@H](n2nc(C#Cc3c(F)cc4c(ncn4CC)c3F)c3c(N)ncnc32)C[C@@H]1COC [Example 85, 1-[(2R,4S)-4-[4-Amino-3-[2-(1-ethyl-4,6-difluoro-1,3-benzodiazol-5-yl)ethynyl]pyrazolo[3,4-d]pyrimidin-1-yl]-2-(methoxymethyl)pyrrolidin-1-yl]prop-2-en-1-one]
C=CC(=O)N1C[C@@H](n2nc(C#Cc3c(F)cc4c(ncn4CC)c3F)c3c(N)nccc32)C[C@@H]1COC [Example 86, 1-[(2R,4S)-4-[4-Amino-3-[2-(1-ethyl-4,6-difluoro-1,3-benzodiazol-5-yl)ethynyl]pyrazolo[4,3-c]pyridin-1-yl]-2-(methoxymethyl)pyrrolidin-1-yl]prop-2-en-1-one]
C=CC(=O)N1C[C@@H](n2cc(C#Cc3c(F)cc4c(ncn4CC)c3F)c3c(N)ncnc32)C[C@@H]1COC [Example 87, 1-[(2R,4S)-4-[4-Amino-5-[2-(1-ethyl-4,6-difluoro-1,3-benzodiazol-5-yl)ethynyl]pyrrolo[2,3-d]pyrimidin-7-yl]-2-(methoxymethyl)pyrrolidin-1-yl]prop-2-en-1-one]
C=CC(=O)N1C[C@@H](n2nc(C#Cc3cc4ncn(CC)c4cc3Cl)c3c(N)nccc32)C[C@@H]1COC [Example 88, 1-[(2R,4S)-4-[4-Amino-3-[2-(6-chloro-1-ethyl-1,3-benzodiazol-5-yl)ethynyl]pyrazolo[4,3-c]pyridin-1-yl]-2-(methoxymethyl)pyrrolidin-1-yl]prop-2-en-1-one]
C=CC(=O)N1C[C@@H](n2cc(C#Cc3cc4nc(C)[nH]c4cc3Cl)c3c(N)ncnc32)C[C@@H]1COC [Example 89, 1-[(2R,4S)-4-[4-Amino-5-[2-(6-chloro-2-methyl-1H-1,3-benzodiazol-5-yl)ethynyl]pyrrolo[2,3-d]pyrimidin-7-yl]-2-(methoxymethyl)pyrrolidin-1-yl]prop-2-en-1-one]
C=CC(=O)N1C[C@@H](n2nc(C#Cc3cc4ncn(C)c4cc3Cl)c3c(N)ncnc32)C[C@@H]1COC [Example 90, 1-[(2R,4S)-4-[4-Amino-3-[2-(6-chloro-1-methyl-1,3-benzodiazol-5-yl)ethynyl]pyrazolo[3,4-d]pyrimidin-1-yl]-2-(methoxymethyl)pyrrolidin-1-yl]prop-2-en-1-one]
C=CC(=O)N1C[C@@H](n2cc(C#Cc3cc4ncn(C)c4cc3Cl)c3c(N)ncnc32)C[C@@H]1COC [Example 91, 1-[(2R,4S)-4-[4-Amino-5-[2-(6-chloro-1-methyl-1,3-benzodiazol-5-yl)ethynyl]pyrrolo[2,3-d]pyrimidin-7-yl]-2-(methoxymethyl)pyrrolidin-1-yl]prop-2-en-1-one]
C=CC(=O)N1C[C@@H](n2nc(C#Cc3cc4ncn(CC)c4cc3Cl)c3c(N)ncnc32)C[C@@H]1COC [Example 92, 1-[(2R,4S)-4-[4-Amino-3-[2-(6-chloro-1-ethyl-1,3-benzodiazol-5-yl)ethynyl]pyrazolo[3,4-d]pyrimidin-1-yl]-2-(methoxymethyl)pyrrolidin-1-yl]prop-2-en-1-one]
C=CC(=O)N1C[C@@H](n2cc(C#Cc3cc4ncn(CC)c4cc3Cl)c3c(N)ncnc32)C[C@@H]1COC [Example 93, 1-[(2R,4S)-4-[4-Amino-5-[2-(6-chloro-1-ethyl-1,3-benzodiazol-5-yl)ethynyl]pyrrolo[2,3-d]pyrimidin-7-yl]-2-(methoxymethyl)pyrrolidin-1-yl]prop-2-en-1-one]
C=CC(=O)N1C[C@@H](n2nc(C#Cc3c(F)cc4[nH]c(C)nc4c3F)c3c(N)ncnc32)C[C@@H]1COC [Example 94, 1-[(2R,4S)-4-[4-Amino-3-[2-(4,6-difluoro-2-methyl-1H-1,3-benzodiazol-5-yl)ethynyl]pyrazolo[3,4-d]pyrimidin-1-yl]-2-(methoxymethyl)pyrrolidin-1-yl]prop-2-en-1-one]
C=CC(=O)N1C[C@@H](n2nc(C#Cc3c(F)cc4nc(C)[nH]c4c3F)c3c(N)nccc32)C[C@@H]1COC [Example 95, 1-[(2R,4S)-4-[4-Amino-3-[2-(4,6-difluoro-2-methyl-1H-1,3-benzodiazol-5-yl)ethynyl]pyrazolo[4,3-c]pyridin-1-yl]-2-(methoxymethyl)pyrrolidin-1-yl]prop-2-en-1-one]
C=CC(=O)N1C[C@@H](n2nc(C#Cc3cc4nc(C)n(C)c4cc3Cl)c3c(N)ncnc32)C[C@@H]1COC [Example 96, 1-[(2R,4S)-4-[4-Amino-3-[2-(6-chloro-1,2-dimethyl-1,3-benzodiazol-5-yl)ethynyl]pyrazolo[3,4-d]pyrimidin-1-yl]-2-(methoxymethyl)pyrrolidin-1-yl]prop-2-en-1-one]
C=CC(=O)N1C[C@@H](n2nc(C#Cc3cc4nc(C)n(C)c4cc3Cl)c3c(N)nccc32)C[C@@H]1COC [Example 97, 1-[(2R,4S)-4-[4-Amino-3-[2-(6-chloro-1,2-dimethyl-1,3-benzodiazol-5-yl)ethynyl]pyrazolo[4,3-c]pyridin-1-yl]-2-(methoxymethyl)pyrrolidin-1-yl]prop-2-en-1-one]
